Assay type in all cases: functional
Holding throughout (conditions): time 18-20 hrs

The subject of assay [1] is Klebsiella pneumoniae. In words: Antibacterial activity against Klebsiella pneumoniae 15-4 assessed as inhibition of bacterial growth measured after 18 to 20 hrs by broth microdilution method.
Assay [2] concerns Escherichia coli. Description: Antibacterial activity against Escherichia coli 14-4 assessed as inhibition of bacterial growth measured after 18 to 20 hrs by broth microdilution method. A general note: Dilution methods test growth across graded concentrations, often in twofold steps.
Assay [3] deals with Klebsiella pneumoniae. In words: Antibacterial activity against Klebsiella pneumoniae 15-5 assessed as inhibition of bacterial growth measured after 18 to 20 hrs by broth microdilution method.
The subject of assay [4] is Acinetobacter baumannii. In words: Antibacterial activity against Acinetobacter baumannii 17-2 assessed as inhibition of bacterial growth measured after 18 to 20 hrs by broth microdilution method.
The test system of assay [5] is Pseudomonas aeruginosa. In words: Antibacterial activity against Pseudomonas aeruginosa 17-1 assessed as inhibition of bacterial growth measured after 18 to 20 hrs by broth microdilution method.
Assay [6] relates to Pseudomonas aeruginosa. In words: Antibacterial activity against Pseudomonas aeruginosa 19-5 assessed as inhibition of bacterial growth measured after 18 to 20 hrs by broth microdilution method.
The test system of assay [7] is Acinetobacter baumannii. In words: Antibacterial activity against Acinetobacter baumannii 17-8 assessed as inhibition of bacterial growth measured after 18 to 20 hrs by broth microdilution method.
For assay [8], the system named is Klebsiella pneumoniae. In words: Antibacterial activity against Klebsiella pneumoniae 15-1 assessed as inhibition of bacterial growth measured after 18 to 20 hrs by broth microdilution method.
Assay [9] concerns Escherichia coli. Description: Antibacterial activity against Escherichia coli 14-2 assessed as inhibition of bacterial growth measured after 18 to 20 hrs by broth microdilution method.
In assay [10] the test system is Escherichia coli. In words: Antibacterial activity against Escherichia coli ATCC 35218 assessed as inhibition of bacterial growth measured after 18 to 20 hrs by broth microdilution method.

This note sets out measurements from ChEMBL document CHEMBL5518248, “Design, Synthesis, and Biological Evaluation of Novel Arylomycins against Multidrug-Resistant Gram-Negative Bacteria” (J Med Chem, 2024).

As to `Cc1nc(-c2ccc(C(C)(C)SSC(C)(C)C)cc2)ncc1C(=O)N[C@@H](CCN)C(=O)N(C)[C@@H]1C(=O)N[C@@H](C)C(=O)N[C@H](C(=O)NCC#N)Cc2ccc(OCCN)c(c2)-c2cc1ccc2OCCN.O=C(O)C(F)(F)F.O=C(O)C(F)(F)F.O=C(O)C(F)(F)F.O=C(O)C(F)(F)F`, the MIC – broadly, the least concentration at which growth counts as inhibited – is 0.25 µg/mL in assay [1]; no more than 0.03 µg/mL in assay [2]; 0.25 µg/mL in [3]; 1 µg/mL in assay [4]; 4 µg/mL in assay [5]; 4 µg/mL in assay [6]. Also, the MIC in [7] was 0.5 µg/mL; in assay [8] it was 0.125 µg/mL; in [9] it was no more than 0.03 µg/mL; in assay [10] it was no more than 0.03 µg/mL.

For `Cc1nc(-c2ccc(C(C)(C)C)cc2)ncc1C(=O)N[C@@H](CCN)C(=O)N(C)[C@@H]1C(=O)N[C@@H](C)C(=O)N[C@H](NC(=O)NC#N)Cc2ccc(OCCN)c(c2)-c2cc1ccc2OCCN.O=C(O)C(F)(F)F.O=C(O)C(F)(F)F.O=C(O)C(F)(F)F.O=C(O)C(F)(F)F`, the MIC in [1] is 64 µg/mL; in assay [2] it was 64 µg/mL; in assay [3] it was 64 µg/mL; in assay [4] it was greater than 64 µg/mL; in assay [5] it was greater than 64 µg/mL; in assay [6], greater than 64 µg/mL. For the same molecule, the MIC in [7] was greater than 64 µg/mL; in assay [8] it was 64 µg/mL; in [9] it was 64 µg/mL; in [10], 32 µg/mL.

For `Cc1nc(-c2ccc(C(C)(C)C)cc2)ncc1CC(=O)N[C@@H](CCN)C(=O)N(C)[C@@H]1C(=O)N[C@@H](C)C(=O)N[C@H](C(=O)NCC#N)Cc2ccc(OCCN)c(c2)-c2cc1ccc2OCCN.O=C(O)C(F)(F)F.O=C(O)C(F)(F)F.O=C(O)C(F)(F)F.O=C(O)C(F)(F)F`, the MIC is greater than 64 µg/mL in [1]; 16 µg/mL in assay [2]; greater than 64 µg/mL in assay [3]; 64 µg/mL in [4]; greater than 64 µg/mL in [5]; greater than 64 µg/mL in [6]. Moreover, the MIC is 8 µg/mL in [7], greater than 64 µg/mL in assay [8], 16 µg/mL in [9] and 16 µg/mL in assay [10].

With `Cc1nc(-c2ccc(C(C)(C)C)cc2)ncc1C(=O)N[C@@H](CCN)C(=O)N(C)[C@@H]1C(=O)N[C@@H](C)C(=O)N[C@H](NC(=O)NCC#N)Cc2ccc(OCCN)c(c2)-c2cc1ccc2OCCN.O=C(O)C(F)(F)F.O=C(O)C(F)(F)F.O=C(O)C(F)(F)F.O=C(O)C(F)(F)F`, the MIC was greater than 64 µg/mL in [1]; 64 µg/mL in assay [2]; greater than 64 µg/mL in assay [3]; greater than 64 µg/mL in [4]; greater than 64 µg/mL in assay [5]; greater than 64 µg/mL in assay [6]. Besides, the minimum inhibitory concentration (MIC) in assay [7] was greater than 64 µg/mL; in assay [8] it was greater than 64 µg/mL; in [9] it was 64 µg/mL; in assay [10] it was 32 µg/mL.

Regarding `Cc1nc(-c2ccc(CSSC(C)(C)C)c(F)c2)ncc1C(=O)N[C@@H](CCN)C(=O)N(C)[C@@H]1C(=O)N[C@@H](C)C(=O)N[C@H](C(=O)NCC#N)Cc2ccc(OCCN)c(c2)-c2cc1ccc2OCCN.O=C(O)C(F)(F)F.O=C(O)C(F)(F)F.O=C(O)C(F)(F)F.O=C(O)C(F)(F)F`, the MIC in assay [1] was 0.25 µg/mL; in assay [2] it was 0.125 µg/mL; in assay [3], 0.25 µg/mL; in assay [4], 1 µg/mL; in [5], 4 µg/mL; in assay [6], 4 µg/mL. Moreover, the MIC in [7] turned out to be 1 µg/mL; in assay [8], 0.25 µg/mL; in assay [9], 0.125 µg/mL; in assay [10], 0.06 µg/mL.

Consider `Cc1nc(-c2ccc(C(C)(C)C)cc2)ncc1C(=O)N[C@@H](CCN)C(=O)N(C)[C@@H]1C(=O)N[C@@H](C)C(=O)N[C@H](C(=O)O)Cc2ccc(OCCN)c(c2)-c2cc1ccc2OCCN.O=C(O)C(F)(F)F.O=C(O)C(F)(F)F.O=C(O)C(F)(F)F.O=C(O)C(F)(F)F`, for which the MIC was 0.25 µg/mL in assay [1]; 0.5 µg/mL in assay [2]; 0.125 µg/mL in assay [3]; 8 µg/mL in [4]; greater than 64 µg/mL in [5]; greater than 64 µg/mL in assay [6]. For the same molecule, the MIC came out at 1 µg/mL in assay [7], 0.06 µg/mL in assay [8], 0.125 µg/mL in assay [9] and 0.06 µg/mL in assay [10].

With `Cc1nc(-c2ccc(C(C)(C)C)cc2)ncc1C(=O)N[C@@H](CCN)C(=O)N(C)[C@@H]1C(=O)N[C@@H](C)C(=O)N[C@H](C(=O)OCC=O)Cc2ccc(OCCN)c(c2)-c2cc1ccc2OCCN.Cl.Cl.Cl.Cl`, the MIC in assay [1] was 0.06 µg/mL; in [2], 0.125 µg/mL; in [3] it was no more than 0.03 µg/mL; in assay [4], 8 µg/mL; in assay [5], greater than 64 µg/mL; in assay [6], greater than 64 µg/mL. Also, the MIC in assay [7] is 2 µg/mL; in assay [8], no more than 0.03 µg/mL; in [9], 0.06 µg/mL; in [10], no more than 0.03 µg/mL.

Turning to `Cc1nc(-c2ccc(C(C)(C)C)cc2)ncc1NC(=O)N[C@@H](CCN)C(=O)N(C)[C@@H]1C(=O)N[C@@H](C)C(=O)N[C@H](C(=O)NCC#N)Cc2ccc(OCCN)c(c2)-c2cc1ccc2OCCN.O=C(O)C(F)(F)F.O=C(O)C(F)(F)F.O=C(O)C(F)(F)F.O=C(O)C(F)(F)F`, the MIC in assay [1] is 32 µg/mL; in assay [2], 8 µg/mL; in assay [3], 16 µg/mL; in [4] it was 32 µg/mL; in assay [5], greater than 64 µg/mL; in [6], greater than 64 µg/mL. In addition, the MIC came out at 8 µg/mL in [7], 16 µg/mL in assay [8], 16 µg/mL in assay [9] and 4 µg/mL in assay [10].

With `Cc1nc(-c2ccc(C(C)(C)C)cc2)ncc1C(=O)N[C@@H](CCN)C(=O)N(C)[C@H]1Cc2ccc(OCCN)c(c2)-c2cc(ccc2OCCN)C[C@@H](C(=O)NCC#N)NC(=O)[C@H](C)NC1=O.Cl.Cl.Cl.Cl`, the MIC in assay [1] is greater than 64 µg/mL; in [2], 64 µg/mL; in assay [3] it was greater than 64 µg/mL; in [4], greater than 64 µg/mL; in assay [5], greater than 64 µg/mL; in [6] it was greater than 64 µg/mL. For the same molecule, the MIC in assay [7] was greater than 64 µg/mL; in assay [8] it was greater than 64 µg/mL; in [9], 64 µg/mL; in assay [10], 61 µg/mL.

In the case of `Cc1nc(-c2ccc(C3SCCS3)cc2)ncc1C(=O)N[C@@H](CCN)C(=O)N(C)[C@@H]1C(=O)N[C@@H](C)C(=O)N[C@H](C(=O)NCC#N)Cc2ccc(OCCN)c(c2)-c2cc1ccc2OCCN.O=C(O)C(F)(F)F.O=C(O)C(F)(F)F.O=C(O)C(F)(F)F.O=C(O)C(F)(F)F`, the MIC in assay [1] came to 1 µg/mL; in assay [2], 0.125 µg/mL; in assay [3] it was 0.25 µg/mL; in [4], 8 µg/mL; in [5], 32 µg/mL; in [6], 64 µg/mL. Moreover, the MIC amounted to 2 µg/mL in [7], 0.25 µg/mL in [8], 0.125 µg/mL in assay [9] and 0.06 µg/mL in assay [10].

Turning to `CCSSc1ccc(-c2ncc(C(=O)N[C@@H](CCN)C(=O)N(C)[C@@H]3C(=O)N[C@@H](C)C(=O)N[C@H](C(=O)NCC#N)Cc4ccc(OCCN)c(c4)-c4cc3ccc4OCCN)c(C)n2)cc1.O=C(O)C(F)(F)F.O=C(O)C(F)(F)F.O=C(O)C(F)(F)F.O=C(O)C(F)(F)F`, the MIC in assay [1] was 0.125 µg/mL; in [2] it was 0.06 µg/mL; in [3], 0.125 µg/mL; in assay [4], 2 µg/mL; in assay [5], 8 µg/mL; in assay [6] it was 8 µg/mL. Besides, the MIC in [7] is 1 µg/mL; in [8], 0.06 µg/mL; in assay [9], 0.125 µg/mL; in assay [10], no more than 0.03 µg/mL.

In the case of `Cc1nc(-c2ccc(C(C)(C)C)cc2)ncc1C(=O)N[C@@H](CCN)C(=O)N(C)[C@@H]1C(=O)N[C@@H](C)C(=O)N[C@H](C(=O)OCC#N)Cc2ccc(OCCN)c(c2)-c2cc1ccc2OCCN.O=C(O)C(F)(F)F.O=C(O)C(F)(F)F.O=C(O)C(F)(F)F.O=C(O)C(F)(F)F`, the MIC was 0.25 µg/mL in assay [1]; 0.25 µg/mL in [2]; 0.25 µg/mL in assay [3]; 8 µg/mL in [4]; greater than 64 µg/mL in assay [5]; greater than 64 µg/mL in assay [6]. The MIC in assay [7] came to 4 µg/mL; in [8], 0.125 µg/mL; in assay [9] it was 0.125 µg/mL; in assay [10], 0.06 µg/mL.

For the molecule `CCCCCCCSSCc1ccc(-c2ncc(C(=O)N[C@@H](CCN)C(=O)N(C)[C@@H]3C(=O)N[C@@H](C)C(=O)N[C@H](C(=O)NCC#N)Cc4ccc(OCCN)c(c4)-c4cc3ccc4OCCN)c(C)n2)cc1.O=C(O)C(F)(F)F.O=C(O)C(F)(F)F.O=C(O)C(F)(F)F.O=C(O)C(F)(F)F`, the MIC is 2 µg/mL in assay [1]; 1 µg/mL in assay [2]; 2 µg/mL in [3]; 2 µg/mL in assay [4]; 4 µg/mL in [5]; 4 µg/mL in assay [6]. Moreover, the MIC came out at 2 µg/mL in [7], 2 µg/mL in [8], 1 µg/mL in assay [9] and 2 µg/mL in assay [10].

On to `Cc1nc(-c2ccc(C(C)(C)C)cc2)ncc1CN[C@@H](CCN)C(=O)N(C)[C@@H]1C(=O)N[C@@H](C)C(=O)N[C@H](C(=O)NCC#N)Cc2ccc(OCCN)c(c2)-c2cc1ccc2OCCN.O=C(O)C(F)(F)F.O=C(O)C(F)(F)F.O=C(O)C(F)(F)F.O=C(O)C(F)(F)F`, for which the MIC was 32 µg/mL in assay [1]; 2 µg/mL in [2]; 16 µg/mL in assay [3]; 8 µg/mL in assay [4]; 64 µg/mL in assay [5]; greater than 64 µg/mL in [6]. The MIC in [7] turned out to be 2 µg/mL; in assay [8] it was 16 µg/mL; in assay [9] it was 4 µg/mL; in [10], 0.5 µg/mL.
